Results: ChEMBL document CHEMBL1156792, “Application of the dipeptidyl peptidase IV (DPPIV/CD26) based prodrug approach to different amine-containing drugs” (J Med Chem, 2010)
Peptide text beside a SMILES is read from it. * marks the point of attachment. X2 = OC[C@H]1O[C@@H](n2cnc3c(N*)ncnc32)[C@@H](O)[C@@H]1O

Target: Dipeptidyl peptidase 4 (Homo sapiens) (UniProt P27487)
Test: Ratio of Vmax/Km for human recombinant CD26 assessed as hydrolysis

Dipeptidyl peptidase 4 (Homo sapiens), sequence (P27487 whole entry, looked up): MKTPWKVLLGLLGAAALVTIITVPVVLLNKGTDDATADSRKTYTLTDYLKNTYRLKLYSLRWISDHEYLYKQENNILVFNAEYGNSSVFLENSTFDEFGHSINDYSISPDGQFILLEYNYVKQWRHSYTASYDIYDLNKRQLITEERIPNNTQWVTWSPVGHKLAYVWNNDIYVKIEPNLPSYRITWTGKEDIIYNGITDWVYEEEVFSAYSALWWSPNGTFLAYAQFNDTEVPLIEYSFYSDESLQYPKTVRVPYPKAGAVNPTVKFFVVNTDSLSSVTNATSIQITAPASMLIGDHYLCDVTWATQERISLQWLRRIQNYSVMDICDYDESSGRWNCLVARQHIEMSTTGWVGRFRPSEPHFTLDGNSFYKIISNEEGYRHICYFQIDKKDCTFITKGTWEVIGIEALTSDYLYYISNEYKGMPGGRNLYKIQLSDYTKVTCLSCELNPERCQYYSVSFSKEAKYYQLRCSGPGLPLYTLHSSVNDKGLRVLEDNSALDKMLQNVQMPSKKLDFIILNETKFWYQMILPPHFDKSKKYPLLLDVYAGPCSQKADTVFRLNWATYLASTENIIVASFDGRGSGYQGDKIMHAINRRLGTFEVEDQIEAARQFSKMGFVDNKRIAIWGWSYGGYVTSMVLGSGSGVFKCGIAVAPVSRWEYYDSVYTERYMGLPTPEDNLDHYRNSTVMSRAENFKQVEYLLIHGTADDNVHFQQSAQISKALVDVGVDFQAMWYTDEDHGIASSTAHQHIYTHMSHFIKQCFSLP

## CC(C)[C@H](N)C(=O)N1CCC[C@H]1C(=O)N[C@H](C(=O)N1CCC[C@H]1C(=O)Nc1ncnc2c1ncn2[C@@H]1O[C@H](CO)[C@@H](O)[C@@H]1O)C(C)C (H-VPVP-X2)
  Vmax/Km: 0.18

## COc1cccc2c1C(=O)c1c(O)c3c(c(O)c1C2=O)C[C@@](O)(C(=O)CO)C[C@@H]3O[C@H]1C[C@H](NC(=O)[C@@H]2CCCN2C(=O)[C@@H](N)C(C)C)[C@H](O)[C@H](C)O1
  Vmax/Km: 0.5

## N[C@@H](CC(=O)O)C(=O)N1CCC[C@H]1C(=O)Nc1ccc2ncccc2c1
  Vmax/Km: 0.13

## CC(C)[C@H](N)C(=O)N1CCC[C@H]1C(=O)Nc1ccc2ncccc2c1
  Vmax/Km: 1.3
